# Source: article PMC5667462, “Benzoylphenyl thiocyanates are new, effective inhibitors of the mycobacterial resuscitation promoting factor B protein” (Annals of Clinical Microbiology and Antimicrobials, 2017)
# Molecular target: T1, RpfB (catalytic domain, residues 280-362) (Mycobacterium tuberculosis, UniProt P9WG29)
# Assay: release of fluorescent fragments from FITC-labelled peptidoglycan
# Format: biochemical
# Settings: read-out: IC50 Rpf-hydrolysis of PG, μM / M. tuberculosis
# From the text: release of fluorescent fragments from FITC-labelled peptidoglycan on RpfB (catalytic domain, residues 280-362)
# T1 sequence (P9WG29 280-362): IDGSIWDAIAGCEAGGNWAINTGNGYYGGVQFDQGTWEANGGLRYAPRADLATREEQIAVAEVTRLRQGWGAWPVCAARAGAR
row,SMILES,IC50
1,"N#CSc1cccc(C(=O)c2ccccc2)c1 [II, 3-Benzoylphenyl thiocyanate]",1.7 ± 0.4 µM
2,"N#CSc1ccc(C(=O)c2ccccc2)cc1 [III, 4-Benzoylphenyl thiocyanate]",1.2 ± 0.5 µM
3,"N#CSc1ccc(C(=O)c2ccc(SC#N)c([N+](=O)[O-])c2)cc1[N+](=O)[O-] [IV, Bis(4-thiocyano-3-nitrophenyl)methanone]",5.8 ± 2 µM
4,"N#CSc1ccc(C(=O)c2ccc(SC#N)cc2)cc1 [V, Bis(4-thiocyanophenyl)methanone]",4.3 ± 2.4 µM
5,"N#CSc1cccc(C(=O)c2cccc(SC#N)c2)c1 [VI, Bis(3-thiocyanophenyl)methanone]",3.6 ± 1.2 µM

# Molecular target: T1, RpfB (catalytic domain, residues 280-362)
# Assay: intrinsic tryptophan fluorescence quenching (Stern-Volmer)
# Format: binding
# Settings: 50 mM phosphate buffer, pH 6.0; room temperature; RpfB 25.6 μg/ml; excitation 280 nm
row,SMILES,intrinsic tryptophan fluorescence quenching (Stern-Volmer)
1,"N#CSc1ccc(C(=O)c2ccc(SC#N)c([N+](=O)[O-])c2)cc1[N+](=O)[O-] [IV, Bis(4-thiocyano-3-nitrophenyl)methanone]",confirmed by quenching of Rpf’s autofluorescence by the compound (IV)
